Tested on: Human peripheral blood mononuclear cells (PBMCs) as Responder cells, RPMI 1788 Stimulator cells
Assay: Mixed Lymphocyte Reaction (MLR) test
Format: cell-based
Details: Homo sapiens, RPMI-1788, lowest concentration giving 50% inhibition of the MLR; 6 days coculture, 3H-thymidine incorporation
Summary of the method: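 Proliferation was read as cpm after a 1 μCi ^3H-thymidine pulse on day 5 and harvest 18 h later, then expressed as % inhibition relative to an MLR without compound. The 6-day triplicate cocultures combined 0.12×10^6 Ficoll-isolated human PBMCs with 0.045×10^6 mitomycin C-inactivated RPMI 1788 cells in RPMI 1640 with 10% FCS.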

| Structure (SMILES) | IC50 |
| --- | --- |
| O=C(COc1ccc(Cl)cc1)N1CCN(c2ncnc3sc(-c4ccc(F)cc4)cc23)CC1 [Example 312, 2-(4-chlorophenoxy)-1-(4-(6-(4-fluorophenyl)thieno[2,3-d]pyrimidin-4-yl)piperazin-1-yl)ethanone] | 6350 nM |
| Nc1nc(N2CCN(C(=O)COc3ccc(Cl)cc3)CC2)c2nc(-c3ccc(Br)cc3)[nH]c2n1 [Example 391, 1-(4-(2-amino-8-(4-bromophenyl)-9H-purin-6-yl)piperazin-1-yl)-2-(4-chlorophenoxy)ethanone] | 260 nM |
| Nc1nc(N2CCN(CC(=O)Nc3nccs3)CC2)c2nc(-c3ccc(F)cc3)[nH]c2n1 [Example 417, 2-(4-(2-amino-8-(4-fluorophenyl)-9H-purin-6-yl)piperazin-1-yl)-N-(thiazol-2-yl)acetamide] | > 10000 nM |
| Nc1nc(N2CCN(c3nccs3)CC2)c2nc(CCc3ccc(F)cc3)sc2n1 [Example 140, 5-amino-2-[2-(4-fluorophenyl)ethyl]-7-(4-thiazol-2-yl-piperazine-1-yl)-thiazolo[5,4-d]pyrimidine] | 8820 nM |
| Nc1nc(N2CCN(C(=O)COc3ccccc3)CC2)c2nc(-c3ccc(F)cc3)[nH]c2n1 [Example 401, 1-(4-(2-amino-8-(4-fluorophenyl)-9H-purin-6-yl)piperazin-1-yl)-2-phenoxyethanone] | 1090 nM |
| CN(C(=O)CN1CCN(c2nc(N)nc3oc(CCc4ccc(F)cc4)nc23)CC1)c1ccccc1 [Example 198, 5-amino-2-[2-(4-fluorophenyl)ethyl]-7-(4-[(methylphenyl-carbamoyl)methyl]piperazin-1-yl)-oxazolo[5,4-d]pyrimidine] | > 10000 nM |
| Nc1nc(N2CCN(C(=O)COc3ccc(Cl)cc3)CC2)c2nc(C(c3ccc(F)cc3)C3CCCC3)sc2n1 (stereo not drawn) [Example 151, 5-amino-2-[cyclopentyl-(4-fluorophenyl)methyl]-7-(4-[2-(4-chlorophenoxy)acetyl]piperazin-1-yl)thiazolo[5,4-d]pyrimidine] | > 10000 nM |
| COc1ccc(OCC(=O)N2CCN(c3nc(N)nc4sc(-c5ccccc5)cc34)CC2)cc1 [Example 369, 1-(4-(2-amino-6-phenylthieno[2,3-d]pyrimidin-4-yl)piperazin-1-yl)-2-(4-methoxyphenoxy)ethanone] | 72 nM |
| COc1ccc(OCC(=O)N2CCN(c3nc(N)nc4sc(-c5ccccc5)nc34)CC2)cc1 [Example 208, 1-(4-(5-amino-2-phenylthiazolo[5,4-d]pyrimidin-7-yl)piperazin-1-yl)-2-(4-methoxyphenoxy)ethanone] | 42 nM |
| Nc1nc(N2CCN(Cc3ccc(F)cc3)CC2)c2nc(-c3ccc(F)cc3)[nH]c2n1 [Example 418, 6-(4-(4-fluorobenzyl)piperazin-1-yl)-8-(4-fluorophenyl)-9H-purin-2-amine] | 9860 nM |
| Nc1nc(N2CCN(C(=O)COc3ccc(Cl)cc3)CC2)c2nc(C3CC3)sc2n1 [Example 119, 5-amino-2-cyclopropyl-7-[4-(4-chlorophenoxyacetyl)piperazin-1-yl]-thiazolo[5,4-d]pyrimidine] | 600 nM |
| CC(C)(C)c1nc2c(N3CCN(C(=O)COc4ccc(Cl)cc4)CC3)nc(N)nc2[nH]1 [Example 399, 1-(4-(2-amino-8-tert-butyl-9H-purin-6-yl)piperazin-1-yl)-2-(4-chlorophenoxy)ethanone] | 6310 nM |
| Nc1nc(N2CCN(C(=O)c3ccc(Cl)cc3)CC2)c2nc(-c3ccc(F)cc3)[nH]c2n1 [Example 404, (4-(2-amino-8-(4-fluorophenyl)-9H-purin-6-yl)piperazin-1-yl)(4-chlorophenyl)methanone] | > 10000 nM |
| Nc1nc(N2CCN(C(=O)c3ccc(Cl)cc3)CC2)c2nc(CCc3cccs3)sc2n1 [Example 156, 5-amino-2-(2-thiophen-2-ylethyl)-7-(4-(4-chloro-benzoyl)piperazin-1-yl)thiazolo[5,4-d]pyrimidine] | > 10000 nM |
| Nc1nc(N2CCN(C(=O)COc3cccc([N+](=O)[O-])c3)CC2)c2nc(-c3ccc(F)cc3)oc2n1 [Example 193, 5-amino-2-(4-fluorophenyl)-7-(4-[2-(3-nitrophenoxy)acetyl]-piperazin-1-yl)-oxazolo[5,4-d]pyrimidine] | 700 nM |
| O=C(O)c1nc(N2CCN(C(=O)COc3ccc(Cl)cc3)CC2)c2cc(-c3ccc(F)cc3)sc2n1 [Example 357, 4-(4-(2-(4-chlorophenoxy)acetyl)piperazin-1-yl)-6-(4-fluorophenyl)thieno[2,3-d]pyrimidine-2-carboxylic acid] | > 10000 nM |
| Nc1nc(N2CCC(C(=O)c3ccccc3)CC2)c2cc(-c3ccc(F)cc3)sc2n1 [Example 348, (1-(2-amino-6-(4-fluorophenyl)thieno[2,3-d]pyrimidin-4-yl)piperidin-4-yl)(phenyl)methanone] | 8270 nM |

| Structure (SMILES) | IC50 |
| --- | --- |
| Nc1nc(N[C@H]2CCN(C(=O)COc3ccc(Cl)cc3)C2)c2nc(CCc3ccc(F)cc3)sc2n1 [Example 147, 5-amino-2-[2-(4-fluorophenyl)ethyl]-7-(1-(4-chlorophenoxyacetyl)pyrrolidin-3-(S)-ylamino)-thiazolo[5,4-d]pyrimidine] | 4520 nM |
| Nc1nc(N2CCN(C(=O)Nc3ccc(Cl)cc3)CC2)c2cc(-c3ccccc3)sc2n1 [Example 331, 4-(2-amino-6-phenylthieno[2,3-d]pyrimidin-4-yl)-N-(4-chlorophenyl)piperazine-1-carboxamide] | 6700 nM |
| Nc1nc(N2CCN(C(=O)COc3ccc(Cl)cc3)CC2)c2nc(CCCc3ccc(F)cc3)sc2n1 [Example 290, 1-(4-(5-amino-2-(3-(4-fluorophenyl)propyl)thiazolo[5,4-d]pyrimidin-7-yl)piperazin-1-yl)-2-(4-chlorophenoxy)ethanone] | 960 nM |
| Nc1nc(N2CCOCC2)c2nc(Cc3ccc(F)cc3)sc2n1 [Example 34, 2-(4-fluorobenzyl)-7-morpholino-thiazolo[5,4-d]pyrimidin-5-amine] | > 10000 nM |
| Nc1nc(N2CCN(C(=O)COc3ccc(Cl)cc3)CC2)c2nc(Nc3ccc(F)cc3)sc2n1 [Example 127, 5-amino-7-[4-(4-chlorophenoxyacetyl)piperazin-1-yl]-2-(4-fluorophenylamino)-thiazolo[5,4-d]pyrimidine] | 6770 nM |
| COc1ccc(OCC(=O)N2CCN(c3nc(N)nc4sc(CCc5cccc(OC)c5)nc34)CC2)cc1 [Example 253, 1-(4-(5-amino-2-(3-methoxyphenethyl)thiazolo[5,4-d]pyrimidin-7-yl)piperazin-1-yl)-2-(4-methoxyphenoxy)ethanone] | 710 nM |
| CC(c1ccc(F)cc1)c1nc2c(N3CCN(C(=O)COc4ccc(Cl)cc4)CC3)nc(N)nc2s1 (stereo not drawn) [Example 66, 1-(4-(5-amino-2-(1-(4-fluorophenyl)ethyl)thiazolo[5,4-d]pyrimidin-7-yl)piperazin-1-yl)-2-(4-chlorophenoxy)ethanone] | 4380 nM |
| Nc1nc(N2CCOCC2)c2nc(-c3ccc(F)cc3)sc2n1 [Example 33, 2-(4-fluorophenyl)-7-morpholino-thiazolo[5,4-d]pyrimidin-5-amine] | > 10000 nM |
| Cc1cccc(NC(=O)N2CCN(c3nc(N)nc4sc(Cc5ccc(F)cc5)nc34)CC2)c1 [Example 44, 4-(5-amino-2-(4-fluorobenzyl)thiazolo[5,4-d]pyrimidin-7-yl)-N-m-tolylpiperazine-1-carboxamide] | 400 nM |
| N#Cc1ccc(NC(=O)N2CCN(c3nc(N)nc4sc(-c5ccc(F)cc5)nc34)CC2)cc1 [Example 216, 4-(5-amino-2-(4-fluorophenyl)thiazolo[5,4-d]pyrimidin-7-yl)-N-(4-cyanophenyl)piperazine-1-carboxamide] | 19 nM |
| Cc1cccc(NC(=O)N2CCCN(c3nc(N)nc4[nH]c(-c5ccc(F)cc5)nc34)CC2)c1 [Example 422, 4-(2-amino-8-(4-fluorophenyl)-9H-purin-6-yl)-N-m-tolyl-1,4-diazepane-1-carboxamide] | 1180 nM |
| Nc1nc(N2CCN(C(=O)COc3ccc(Cl)cc3)CC2)c2nc(C3CCCCC3)sc2n1 [Example 120, 5-amino-7-[4-(4-chlorophenoxyacetyl)piperazin-1-yl]-2-cyclohexylthiazolo[5,4-d]pyrimidine] | 830 nM |
| CCCc1nc2c(N3CCN(C(=O)COc4ccc(Cl)cc4)CC3)nc(N)nc2[nH]1 [Example 397, 1-(4-(2-amino-8-propyl-9H-purin-6-yl)piperazin-1-yl)-2-(4-chlorophenoxy)ethanone] | 940 nM |
| N#Cc1ccc(NC(=O)N2CCN(c3nc(N)nc4sc(Cc5ccc(F)cc5)nc34)CC2)cc1 [Example 232, 4-(5-amino-2-(4-fluorobenzyl)thiazolo[5,4-d]pyrimidin-7-yl)-N-(4-cyanophenyl)piperazine-1-carboxamide] | 860 nM |
| COCc1nc2c(N3CCN(C(=O)COc4ccc(Cl)cc4)CC3)nc(N)nc2o1 [Example 186, 5-amino-7-[4-(4-chlorophenoxyacetyl)piperazin-1-yl]-2-methoxylmethyloxazolo[5,4-d]pyrimidine] | 1830 nM |
| Nc1nc(N2CCN(C(=O)c3cccnc3)CC2)c2cc(-c3ccc(F)cc3)sc2n1 [Example 346, (4-(2-amino-6-(4-fluorophenyl)thieno[2,3-d]pyrimidin-4-yl)piperazin-1-yl)(pyridin-3-yl)methanone] | > 10000 nM |
| Nc1nc(N2CCN(c3ccc(Cl)cc3)CC2)c2nc(-c3ccc(F)cc3)[nH]c2n1 [Example 414, 6-(4-(4-chlorophenyl)piperazin-1-yl)-8-(4-fluorophenyl)-9H-purin-2-amine] | 3870 nM |

Same assay, conditions: lowest concentration giving 50% inhibition of the MLR; 6 days coculture, 3H-thymidine incorporation

| Structure (SMILES) | IC50 |
| --- | --- |
| Nc1nc(N2CCN(C(=O)COc3ccc(Cl)cc3)CC2)c2nc(-c3ccc[n+]([O-])c3)sc2n1 [Example 121b, 5-amino-7-[4-(4-chlorophenoxyacetyl)piperazin-1-yl]-2-(N-oxopyridine-3-yl)thiazolo[5,4-d]pyrimidine] | 830 nM |
| Nc1nc(N2CCN(C(=O)COc3ccc(Br)cc3)CC2)c2nc(-c3ccc(F)cc3)sc2n1 [Example 128, 5-amino-2-(4-fluorophenyl)-7-(4-[2-(4-bromophenoxy)acetyl]-piperazin-1-yl)-thiazolo[5,4-d]pyrimidine] | 380 nM |
